Data taken from patent US20260174734A1, “PHARMACEUTICAL COMPOSITION” (MEXICHEM FLUOR S.A. DE C.V., priority 2016, published 2026).

Legend:
[1] = Chemical stability in propellant in uncoated aluminium cans (HPLC assay and total impurities); conditions: for % Assay (LC) / % total impurities: uncoated aluminium cans
Method: (§1) The columns were coupled to a UV detector operating at a wavelength of either 220 nm or 235 nm depending on which drug was being analysed. The autosampler was operated at ambient temperature and 100 μl samples were injected into the column for the analyses.

[2] = In vitro aerosolization performance from MDI (Next Generation Impactor); format: physicochemical
Method: The drugs were weighed directly into standard uncoated 14 ml aluminium canisters (C128, Presspart, Blackburn, UK). The canisters were then crimped with a 50 μL valve (Bespak, Kings Lynn, UK) following which the propellant was filled into the canisters through the valve using a manual Pamasol crimper/filler (Pamasol, Switzerland).
Finally, the canisters were sonicated for 20 minutes to aid dispersion of the drug in the suspension.
The in vitro aerosolization performance of the formulations was tested immediately after preparation (time t=zero) with a Next Generation Impactor using the method described below. The formulations were then stored under stress storage conditions (valve down) at 40° C. and 75% relative humidity for 1 month. After storing for 1 month under the stress storage conditions, the in vitro aerosolization performance of the pharmaceutical formulations was tested again as before with a Next Generation Impactor using the method described below.
The Next Generation Impactor (NGI, Copley Scientific, Nottingham UK) was connected to a vacuum pump (GE Motors, NJ, USA). Prior to testing, the cups of the NGI system were coated with 1% v/v silicone oil in hexane to eliminate particle bounce. For each experiment, three actuations of the valve were discharged into the NGI at 30 L.min-1 as per pharmacopeia guidelines. Following aerosolization, the NGI apparatus was dismantled and the actuator and each part of the NGI was washed down into known volumes of the HPLC mobile phase. The mass of drug deposited on each part of the NGI was determined by HPLC. This protocol was repeated three times for each canister, following which, the fine particle dose (FPD) and fine particle fraction of the emitted dose (FPFED) were determined.
High performance liquid chromatography (HPLC) was used to determine drug content following aerosolization studies (see below).
as §1

[3] = HFA-134a, T = 1M @ 25° C./60% RH
[4] = HFA-134a, T = 1M @ 40° C./75% RH
[5] = HFA-134a, T = 3M @ 25° C./60% RH
[6] = HFA-134a, T = 3M @ 40° C./75% RH
[7] = HFA-152a, T = 1M @ 25° C./60% RH
[8] = HFA-152a, T = 1M @ 40° C./75% RH
[9] = HFA-152a, T = 3M @ 25° C./60% RH
[10] = HFA-152a, T = 3M @ 40° C./75% RH
[11] = HFA-134a propellant, T = 0, combination formulation, MDI
[12] = HFA-134a propellant, T = 1 month @ 40° C./75% RH, valve down
[13] = HFA-152a propellant, T = 0, combination formulation, MDI
[14] = HFA-152a propellant, T = 1 month @ 40° C./75% RH, valve down

For `C[N+]1(C)CCC(OC(=O)C(O)(c2ccccc2)C2CCCC2)C1` (stereo not shown) [Glycopyrronium Bromide, glycopyrronium bromide], which “% Assay (LC)” value ([1]; HFA-134a, Initial time T = 0) is on record?
The value was 98.5%.

And the “% total impurities” value ([1]; HFA-134a, Initial time T = 0)?
The value was 0.19%.

What about the “% Assay (LC)” value [1, 3] of the same compound?
The value was 98.2%.

And the “% total impurities” value [1, 3]?
The value was 0.28%.

And the “% Assay (LC)” value [1, 4]?
The value was 97.8%.

And the “% total impurities” value [1, 4]?
Its value is 0.39%.

What about the “% Assay (LC)” value [1, 5] of the same compound?
The value was 94.8%.

And the “% total impurities” value [1, 5]?
Its value is 1.15%.

And the “% Assay (LC)” value [1, 6]?
The value was 93.8%.

And the “% total impurities” value [1, 6]?
The value was 1.38%.

What about the “% Assay (LC)” value ([1]; HFA-152a, Initial time T = 0) of the same compound?
Its value is 98.5%.

And the “% total impurities” value ([1]; HFA-152a, Initial time T = 0)?
Its value is 0.19%.

What about the “% Assay (LC)” value [1, 7] of the same compound?
The value was 98.6%.

What about the “% total impurities” value [1, 7] of the same compound?
Its value is 0.25%.

What about the “% Assay (LC)” value [1, 8] of the same compound?
Its value is 98.4%.

And the “% total impurities” value [1, 8]?
Its value is 0.35%.

And the “% Assay (LC)” value [1, 9]?
The value was 97.6%.

And the “% total impurities” value [1, 9]?
Its value is 0.55%.

And the “% Assay (LC)” value [1, 10]?
Its value is 97.2%.

What about the “% total impurities” value [1, 10] of the same compound?
Its value is 0.82%.

What about the MMAD ([2]; HFA-134a based formulations) of the same compound?
Its MMAD is “around 2.6 μm”.

What about the “Emitted Dose (μg ± S.D.)” value [2, 11] of the same compound?
Its value is 43.7 ± 0.2 µg.

And the “Fine Particle Dose (μg ± S.D.)” value [2, 11]?
Its value is 12.6 ± 0.1 µg.

What about the “MMAD ± GSD (μm)” value [2, 11] of the same compound?
The value was 2.6 ± 2.4 μm.

And the “Emitted Dose (μg ± S.D.)” value [2, 12]?
Its value is 38.7 ± 0.6 µg.

What about the “Fine Particle Dose (μg ± S.D.)” value [2, 12] of the same compound?
The value was 11.4 ± 0.4 µg.

What about the “MMAD ± GSD (μm)” value [2, 12] of the same compound?
Its value is 2.8 ± 2.3 μm.

And the “Emitted Dose (μg ± S.D.)” value [2, 13]?
The value was 45.2 ± 0.7 µg.

And the “Fine Particle Dose (μg ± S.D.)” value [2, 13]?
Its value is 21.0 ± 1.0 µg.

What about the “MMAD ± GSD (μm)” value [2, 13] of the same compound?
The value was 3.1 ± 2.2 μm.

And the “Emitted Dose (μg ± S.D.)” value [2, 14]?
The value was 44.2 ± 0.6 µg.

And the “Fine Particle Dose (μg ± S.D.)” value [2, 14]?
Its value is 20.7 ± 0.8 µg.

What about the “MMAD ± GSD (μm)” value [2, 14] of the same compound?
The value was 3.0 ± 2.2 μm.

Which results are given for `CCC(=O)O[C@]1(C(=O)SCF)[C@H](C)C[C@H]2[C@@H]3C[C@H](F)C4=CC(=O)C=C[C@]4(C)[C@@]3(F)[C@@H](O)C[C@@]21C` [Fluticasone Propionate, fluticasone propionate]?
% Assay (LC) ([1]; HFA-134a, Initial time T = 0): 98.5%; % total impurities ([1]; HFA-134a, Initial time T = 0): <LoQ; % Assay (LC) [1, 3]: 98.2%; % total impurities [1, 3]: 0.19%; % Assay (LC) [1, 4]: 97.8%; % total impurities [1, 4]: 0.38%; % Assay (LC) [1, 5]: 94.8%; % total impurities [1, 5]: 0.58%; % Assay (LC) [1, 6]: 93.8%; % total impurities [1, 6]: 0.69%; % Assay (LC) ([1]; HFA-152a, Initial time T = 0): 98.5%; % total impurities ([1]; HFA-152a, Initial time T = 0): <LoQ; % Assay (LC) [1, 7]: 98.6%; % total impurities [1, 7]: <LoQ; % Assay (LC) [1, 8]: 98.4%; % total impurities [1, 8]: 0.18%; % Assay (LC) [1, 9]: 97.6%; % total impurities [1, 9]: <LoQ; % Assay (LC) [1, 10]: 97.2%; % total impurities [1, 10]: 0.58%; Emitted Dose (μg ± S.D.) [2, 11]: 119.0 ± 2.0 µg; FPFED (%) fine particle fraction of the emitted dose [2, 11]: 32.6 ± 0.9%; Fine Particle Dose (μg ± S.D.) [2, 11]: 38.8 ± 1.7 µg; MMAD ± GSD (μm) [2, 11]: 3.0 ± 1.8 μm; Emitted Dose (μg ± S.D.) [2, 12]: 112.8 ± 2.3 µg; FPFED (%) fine particle fraction of the emitted dose [2, 12]: 29.0 ± 1.9%; Fine Particle Dose (μg ± S.D.) [2, 12]: 32.8 ± 1.9 µg; MMAD ± GSD (μm) [2, 12]: 3.1 ± 1.9 μm; Emitted Dose (μg ± S.D.) [2, 13]: 111.8 ± 0.7 µg; FPFED (%) fine particle fraction of the emitted dose [2, 13]: 46.1 ± 1.5%; Fine Particle Dose (μg ± S.D.) [2, 13]: 51.5 ± 1.9 µg; MMAD ± GSD (μm) [2, 13]: 3.0 ± 1.9 μm; Emitted Dose (μg ± S.D.) [2, 14]: 105.6 ± 0.8 µg; FPFED (%) fine particle fraction of the emitted dose [2, 14]: 45.2 ± 1.2%; Fine Particle Dose (μg ± S.D.) [2, 14]: 48.5 ± 1.5 µg; MMAD ± GSD (μm) [2, 14]: 2.9 ± 1.9 μm

With `CCc1cc2c(cc1CC)CC(NC[C@H](O)c1ccc(O)c3[nH]c(=O)ccc13)C2` [Indacaterol, indacaterol] as the compound, how does the “chemical stability under accelerated test conditions, HFA-152a rather than HFA-134a” value ([1]; HFA-152a as aerosolization propellant versus HFA-134a) read?
Its value is “superior chemical stability”.
